Laboratory results: patent EP2014655B1, “Etnangien derivatives and their use as antibiotics” (Helmholtz-Zentrum für Infektionsforschung, priority 2007, dated 2009)
≈ marks a conversion by molar mass, not a printed value.

Legend:
E. coli = assay: MIC by serial dilution; format: cell-based; conditions: Escherichia coli
Description: (§1) Antibiotic activity, which is assumed to be based on the inhibition of the RNA polymerase, was tested against several gram-positive and gram-negative bacteria and Saccharomyces cerevisiae, including a Rifampicin resistant Staphylococcus aureus clinical isolate.
(§2) The microorganisms tested were grown on 1% peptone, 0.1% meat extract, 0.1% yeast extract medium containing 1.5% agar at pH 7.0. MIC values were determined by serial dilution. Table 2: Antimicrobial activity of Etnangien methylester in comparison to Etnangien acid 1

[1] = molecular target: T1, Moloney murine leukemia virus reverse transcriptase (MuLVRT) (Moloney murine leukemia virus, UniProt P03355); assay: Nucleic acid polymerase inhibition, in vitro assay; format: biochemical
T1 construct: Moloney murine leukemia virus reverse transcriptase (MuLVRT)
Description: (§3) Similar antiviral activity is found for the Etnangien esters according to the invention.
(§4) Measurement results showing the nucleic acid polymerase inhibition by Etnangien 1 are shown in Figure 2 for E. coli RNA polymerase (EcRNAP), E. coli DNA polymerase (EcDNAP), and HIV I reverse transcriptase (HIVRT), and in Figure 3 for Moloney murine leukemia virus reverse transcriptase (MuLVRT). In vitro assays were performed according to Richardson et al. (J. Biol. Chem. 222-232 (1964)) and Houts et al. (J. Virol. 517-522(1979)). Maximum inhibition for E. coli polymerases was found for concentrations of 50 to 60 µg/mL, although E. coli itself was rather resistant.

[2] = molecular target: T2, HIV I reverse transcriptase (HIVRT) (Human immunodeficiency virus type 1 group M subtype B, UniProt P04585); assay: Nucleic acid polymerase inhibition, in vitro assay; format: biochemical; conditions: result in words
T2 construct: HIV I reverse transcriptase (HIVRT)
Description: as §3, §4

[3] = test system: Corynebacterium glutamicum (DSM 20300); assay: MIC by serial dilution; format: cell-based; conditions: DSM20300
Description: as §1, §2

Saccharomyces cerevisiae = assay: MIC by serial dilution; format: cell-based
Description: as §1, §2

Staphylococcus aureus = assay: MIC by serial dilution; format: cell-based
Description: as §1, §2

[4] = test system: S. aureus, Rifampicin resistant; assay: MIC by serial dilution; format: cell-based; conditions: Staphylococcus aureus
Description: as §1, §2

Micrococcus luteus = assay: MIC by serial dilution; format: cell-based
Description: as §1, §2

Nocardia corallina = assay: MIC by serial dilution; format: cell-based; conditions: Gordonia rubripertincta
Description: as §1, §2

Bacillus subtilis = assay: MIC by serial dilution; format: cell-based
Description: as §1, §2

Row | Molecule | MIC (E. coli) [µg/mL] | concentration of maximum inhibition ([1]; MuLVRT, Figure 3) [µg/mL] | inhibition of reverse transcriptase ([1]; at concentrations of 5 µg/mL) | inhibition of viral reverse transcriptase [2] | MIC [3] [µg/mL] | MIC (Saccharomyces cerevisiae) [µg/mL] | MIC (Staphylococcus aureus) [µg/mL] | MIC [4] [µg/mL] | MIC (Micrococcus luteus) [µg/mL] | MIC (Nocardia corallina) [µg/mL] | MIC (Bacillus subtilis) [µg/mL]
1 | COC1C/C=C\C=C\CC(C)C(O)C(C)C(O)C(C)C(O)CC(=O)OC(C(C)C(O)/C=C(C)/C=C/C=C/C=C/C=C/C=C/CC(O)/C=C(\C)CCC(=O)O)CC(O)CCC1 (stereo not drawn) [Etnangien] | > 80 |  |  |  |  |  |  |  |  |  | 
2 | Etnangien |  | 5 | inhibited completely | potent inhibitor |  |  |  |  |  |  | 
3 | COC(=O)CC/C(C)=C/C(O)C/C=C/C=C/C=C/C=C/C=C/C(C)=C/C(O)C(C)C1CC(O)CCCC(OC)C/C=C\C=C\CC(C)C(O)C(C)C(O)C(C)C(O)CC(=O)O1 (stereo not drawn) [Etnangien methylester] | > 80 |  |  |  | 0.24 (≈ 0.281 µM) | > 40 | 2.5 (≈ 2.92 µM) | 3.1 (≈ 3.63 µM) | 0.39 (≈ 0.456 µM) | 0.12 (≈ 0.14 µM) | 20 (≈ 23.4 µM)
